Test results as given in patent publication US10988466B2, “Heterocyclic derivatives useful as SHP2 inhibitors” (Jacobio Pharmaceuticals Co., Ltd., priority 2017, dated 2021).

What follows are compounds tested against T1, SHP2 (Homo sapiens, UniProt Q06124) (assay: biochemical). Details: read-out: SHP2 inhibition (%)@0.1 μM.
T1 sequence (Q06124 1-593): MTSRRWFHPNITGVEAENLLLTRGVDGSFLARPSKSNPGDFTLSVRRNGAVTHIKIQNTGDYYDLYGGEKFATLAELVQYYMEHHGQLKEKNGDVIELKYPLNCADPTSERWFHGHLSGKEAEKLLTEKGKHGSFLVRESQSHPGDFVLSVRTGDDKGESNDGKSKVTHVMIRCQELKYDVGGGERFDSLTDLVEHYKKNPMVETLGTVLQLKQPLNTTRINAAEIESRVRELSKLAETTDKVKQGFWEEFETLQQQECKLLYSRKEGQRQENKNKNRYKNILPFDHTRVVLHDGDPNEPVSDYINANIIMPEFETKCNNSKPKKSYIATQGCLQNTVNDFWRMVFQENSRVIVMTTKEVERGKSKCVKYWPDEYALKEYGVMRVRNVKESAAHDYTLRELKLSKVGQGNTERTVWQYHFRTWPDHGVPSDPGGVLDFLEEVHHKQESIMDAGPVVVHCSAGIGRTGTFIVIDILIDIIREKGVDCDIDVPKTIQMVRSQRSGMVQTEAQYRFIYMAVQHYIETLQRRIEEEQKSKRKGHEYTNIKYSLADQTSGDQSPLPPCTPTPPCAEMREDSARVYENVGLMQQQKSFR
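Note: compounds preincubated 30 min at room temperature in the assay mixture, activity referenced to a 0.5% (v/v) DMSO control taken as 100%, run in triplicate.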

Structure (SMILES) | inhibition at 0.1 µM [%]
Nc1nccc(Sc2cnc(N3CCC4(CC3)Cc3ccccc3C4N)cn2)c1Cl (centres unmarked) [Example 125, 1′-(5-((2-amino-3-chloropyridin-4-yl)thio)pyrazin-2-yl)-1,3-dihydrospiro [indene-2,4′-piperidin]-1-amine] | 86
Nc1nc(N2CCC3(CC2)Cc2ncccc2[C@H]3N)cnc1Sc1ccnc(O)c1Cl [Example 136, (S)-4-((3-amino-5-(5-amino-5,7-dihydrospiro[cyclopenta[b]pyridine-6,4′-piperidin]-1′-yl)pyrazin-2-yl)thio)-3-chloropyridin-2-ol] | 83
Nc1nc(N2CCC3(CC2)Cc2ccccc2[C@H]3N)cnc1Sc1cccc2[nH]cc(F)c12 [Example 157, (S)-1′-(6-amino-5-((3-fluoro-1H-indol-4-yl)thio)pyrazin-2-yl)-1,3-dihydrospiro[indene-2,4′-piperidin]-1-amine] | 78
CN(C)c1nccc(Sc2cnc(N3CCC4(CC3)Cc3ccccc3[C@H]4N)cn2)c1Cl [Example 49, (S)-1′-(5-((3-chloro-2-(dimethylamino)pyridin-4-yl)thio)pyrazin-2-yl)-1,3-dihydrospiro[indene-2,4′-piperidin]-1-amine] | 85
Nc1nccc(Sc2cnc(N3CCC4(CC3)c3ccccc3CC4N)cn2)c1Cl (centres unmarked) [Example 132, 1′-(5-((2-amino-3-chloropyridin-4-yl)thio)pyrazin-2-yl)-2,3-dihydrospiro[indene-1,4′-piperidin]-2-amine] | 78
Nc1cccc(Sc2cnc(N3CCC4(CC3)Cc3ncccc3C4N)cn2)c1Cl (centres unmarked) [Example 128, 1′-(5-((3-amino-2-chlorophenyl)thio)pyrazin-2-yl)-5,7-dihydrospiro [cyclopenta[b]pyridine-6,4′-piperidin]-5-amine] | 84
Nc1nc(N2CCC3(CC2)Cn2c(cccc2=O)[C@H]3N)cnc1Sc1ccnc(N)c1Cl [Example 70, (S)-1-amino-1′-(6-amino-5-((2-amino-3-chloropyridin-4-yl)thio)pyrazin-2-yl)-3H-spiro[indolizine-2,4′-piperidin]-5(1H)-one] | 30
N[C@@H]1c2cccnc2CC12CCN(c1cnc(Sc3c(Cl)cncc3Cl)cn1)CC2 [Example 110, (S)-1′-(5-((3,5-dichloropyridin-4-yl)thio)pyrazin-2-yl)-5,7-dihydrospiro [cyclopenta[b]pyridine-6,4′-piperidin]-5-amine] | 61
CC(C)(C)c1cc2c(s1)CC1(CCN(c3cnc(Sc4ccnc(N)c4Cl)c(N)n3)CC1)[C@@H]2N [Example 79, (S)-1′-(6-amino-5-((2-amino-3-chloropyridin-4-yl)thio)pyrazin-2-yl)-2-(tert-butyl)-4,6-dihydro-spiro[cyclopenta [b]thiophene-5,4′-piperidin]-4-amine] | 58
Nc1nc(N2CCC3(CC2)Oc2ncccc2[C@H]3N)cnc1Sc1ccnc(N)c1Cl [Example 96] | 66
Nc1nc(N2CCC3(CC2)Cc2ccc(C(=O)N4CCCCC4)cc2[C@H]3N)cnc1Sc1ccnc(N)c1Cl [Example 59, (S)-(1-amino-1′-(6-amino-5-((2-amino-3-chloropyridin-4-yl)thio)pyrazin-2-yl)-1,3-dihydrospiro [indene-2,4′-piperidin]-6-yl)(piperidin-1-yl)methanone] | 69
N[C@@H]1c2cccnc2CC12CCN(c1cnc(Sc3cnccc3Cl)cn1)CC2 [Example 106, (S)-1′-(5-((4-chloropyridin-3-yl)thio)pyrazin-2-yl)-5,7-dihydrospiro [cyclopenta[b]pyridine-6,4′-piperidin]-5-amine] | 82
Nc1nc(N2CCC3(CC2)Cc2ccccc2/C3=N\O)cnc1Sc1ccnc(N)c1Cl [Example 149, (Z)-1′-(6-amino-5-((2-amino-3-chloropyridin-4-yl)thio)pyrazin-2-yl) spiro[indene-2,4′-piperidin]-1(3H)-one oxime] | 28
Nc1nc(N2CCC3(CC2)c2ncccc2C[C@H]3N)cnc1Sc1ccnc(N)c1Cl [Example 4, (R)-1′-(6-amino-5-((2-amino-3-chloropyridin-4-yl)thio)pyrazin-2-yl)-5,6-dihydrospiro[cyclopenta[b]pyridine-7,4′-piperidin]-6-amine] | 20
N[C@@H]1c2cccnc2CC12CCN(c1cnc(Sc3cc(F)ncc3Cl)cn1)CC2 [Example 101, (S)-1′-(5-((5-chloro-2-fluoro-pyridin-4-yl)thio)pyrazin-2-yl)-5,7-dihydrospiro[cyclopenta [b]pyridine-6,4′-piperidin]-5-amine] | 83
Nc1nc(N2CCC3(CC2)Cn2ccc(=O)cc2C3N)cnc1Sc1ccnc(N)c1Cl (centres unmarked) [Example 140, 1-amino-1′-(6-amino-5-((2-amino-3-chloropyridin-4-yl)thio)pyrazin-2-yl)-3H-spiro[indolizine-2,4′-piperidin]-7(1H)-one] | 14
Nc1nc(N2CCC3(CC2)Cc2ccc(F)c(F)c2[C@H]3N)cnc1Sc1ccnc(N)c1Cl [Example 40, (S)-1′-(6-amino-5-((2-amino-3-chloropyridin-4-yl)thio)pyrazin-2-yl)-6,7-difluoro-1,3-dihydro-spiro[indene-2,4′-piperidin]-1-amine] | 74
Nc1nc(N2CCC3(CC2)Cc2cc(F)c(F)c(F)c2[C@H]3N)cnc1Sc1ccnc(N)c1Cl [Example 61, (S)-1′-(6-amino-5-((2-amino-3-choropyridin-4-yl)thio)pyrazin-2-yl)-5,6,7-trifluoro-1,3-dihydro-spiro[indene-2,4′-piperidin]-1-amine] | 74

Further lines, results first:

inhibition at 0.1 µM [%] | Structure (SMILES)
71 | Cc1ccc2c(c1)[C@@H](N)C1(CCN(c3cnc(Sc4ccnc(N)c4Cl)c(N)n3)CC1)C2 [Example 23, (S)-1′-(6-amino-5-((2-amino-3-chloropyridin-4-yl)thio)pyrazin-2-yl)-6-methyl-1,3-dihydro-spiro[indene-2,4′-piperidin]-1-amine]
81 | Nc1ccc2c(c1)[C@@H](N)C1(CCN(c3cnc(Sc4ccnc(N)c4Cl)c(N)n3)CC1)C2 [Example 33, (S)-1′-(6-amino-5-((2-amino-3-chloropyridin-4-yl)thio)pyrazin-2-yl)-1,3-dihydrospiro[indene-2,4′-piperidine]-1,6-diamine]
93 | CS(=O)(=O)Nc1ccc2c(c1)[C@@H](N)C1(CCN(c3cnc(Sc4ccnc(N)c4Cl)c(N)n3)CC1)C2 [Example 63, (S)-N-(1-amino-1′-(6-amino-5-((2-amino-3-chloropyridin-4-yl)thio)pyrazin-2-yl)-1,3-dihydrospiro [indene-2,4′-piperidin]-6-yl)methane-sulfonamide]
83 | Nc1nc(N2CCC3(CC2)Cc2ccc(Cl)cc2[C@H]3N)cnc1Sc1ccnc(N)c1Cl [Example 15, (S)-1′-(6-amino-5-((2-amino-3-chloropyridin-4-yl)thio)pyrazin-2-yl)-6-chloro-1,3-dihydrospiro[indene-2,4′-piperidin]-1-amine]
0 | Nc1nc(N2CCC3(CC2)Cc2cnccc2[C@@H]3N)cnc1Sc1ccnc(N)c1Cl [Example 65, (R)-1′-(6-amino-5-((2-amino-3-chloropyridin-4-yl)thio)pyrazin-2-yl)-5,7-dihydrospiro[cyclopenta [c]pyridine-6,4′-piperidin]-5-amine]
82 | Nc1nc(N2CCC3(CC2)Cc2c(O)cccc2[C@H]3N)cnc1Sc1ccnc(N)c1Cl [Example 138, (S)-1-amino-1′-(6-amino-5-((2-amino-3-chloropyridin-4-yl)thio)pyrazin-2-yl)-1,3-dihydrospiro[indene-2,4′-piperidin]-4-ol]
76 | CSc1ccc2c(c1)[C@@H](N)C1(CCN(c3cnc(Sc4ccnc(N)c4Cl)c(N)n3)CC1)C2 [Example 74, (S)-1′-(6-amino-5-((2-amino-3-chloropyridin-4-yl)thio)pyrazin-2-yl)-6-(methylthio)-1,3-dihydro-spiro[indene-2,4′-piperidin]-1-amine]
79 | NC(=O)c1cc2c(cc1F)CC1(CCN(c3cnc(Sc4ccnc(N)c4Cl)c(N)n3)CC1)[C@@H]2N [Example 43, (S)-1-amino-1′-(6-amino-5-((2-amino-3-chloropyridin-4-yl)thio)pyrazin-2-yl)-5-fluoro-1,3-dihydro-spiro[indene-2, 4′-piperidine]-6-carboxamide]
72 | C[S+]([O-])c1ccc2c(c1)[C@@H](N)C1(CCN(c3cnc(Sc4ccnc(N)c4Cl)c(N)n3)CC1)C2 (stereo partly drawn) [Example 25, (1S)-1′-(6-amino-5-((2-amino-3-chloropyridin-4-yl)thio)pyrazin-2-yl)-6-(methylsulfinyl)-1,3-dihydrospiro [indene-2,4′-piperidin]-1-amine]
67 | Nc1nc(N2CCC3(CC2)Cc2cc(F)c(F)cc2[C@H]3N)cnc1Sc1ccnc(N)c1Cl [Example 39, (S)-1′-(6-amino-5-((2-amino-3-chloropyridin-4-yl)thio)pyrazin-2-yl)-5,6-difluoro-1,3-dihydro-spiro[indene-2,4′-piperidin]-1-amine]
74 | COc1ccc2c(c1)CC1(CCN(c3cnc(Sc4ccnc(N)c4Cl)c(N)n3)CC1)[C@@H]2N [Example 11, (S)-1′-(6-amino-5-((2-amino-3-chloropyridin-4-yl)thio)pyrazin-2-yl)-5-methoxy-1,3-dihydrospiro [indene-2,4′-piperidin]-1-amine]
